Tests used:
[1] = target: T1, Prostaglandin G/H synthase 1 (Ovis aries) (UniProt P05979); assay: Inhibition of ovine COX-1 assessed as production of PGE2 using arachidonic acid as a substrate preincubated for 60 mins at 1 uM followed by substrate addition and measured after 2 mins by ELISA analysis relative to control
T1 sequence (whole entry): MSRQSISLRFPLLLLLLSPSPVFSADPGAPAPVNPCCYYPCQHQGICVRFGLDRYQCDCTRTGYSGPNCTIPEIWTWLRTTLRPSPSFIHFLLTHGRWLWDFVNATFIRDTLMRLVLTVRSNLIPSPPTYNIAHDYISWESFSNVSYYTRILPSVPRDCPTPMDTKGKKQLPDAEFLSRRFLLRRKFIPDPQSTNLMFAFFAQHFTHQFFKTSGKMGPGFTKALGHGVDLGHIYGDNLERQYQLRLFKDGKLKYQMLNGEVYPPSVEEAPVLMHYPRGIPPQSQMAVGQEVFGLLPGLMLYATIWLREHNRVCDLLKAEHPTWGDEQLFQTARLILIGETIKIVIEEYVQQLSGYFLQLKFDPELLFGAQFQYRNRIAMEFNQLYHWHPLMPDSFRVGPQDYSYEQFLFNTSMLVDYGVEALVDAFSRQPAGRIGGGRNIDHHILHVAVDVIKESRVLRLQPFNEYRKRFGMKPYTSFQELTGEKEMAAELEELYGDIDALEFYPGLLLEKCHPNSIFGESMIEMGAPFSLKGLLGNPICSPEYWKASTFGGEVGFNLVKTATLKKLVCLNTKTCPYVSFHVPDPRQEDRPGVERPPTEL

[2] = target: T1, Prostaglandin G/H synthase 1 (Ovis aries); assay: Inhibition of ovine COX-1 assessed as production of PGE2 using arachidonic acid as a substrate preincubated for 60 mins at 0.1 uM followed by substrate addition and measured after 2 mins by ELISA analysis relative to control
[3] = target: T2, Prostaglandin G/H synthase 2 (Homo sapiens, UniProt P35354); assay: Inhibition of human recombinant COX-2 assessed as production of PGE2 using arachidonic acid as a substrate preincubated for 60 mins followed by substrate addition and measured after 2 mins by ELISA analysis
T2 sequence (P35354 whole entry): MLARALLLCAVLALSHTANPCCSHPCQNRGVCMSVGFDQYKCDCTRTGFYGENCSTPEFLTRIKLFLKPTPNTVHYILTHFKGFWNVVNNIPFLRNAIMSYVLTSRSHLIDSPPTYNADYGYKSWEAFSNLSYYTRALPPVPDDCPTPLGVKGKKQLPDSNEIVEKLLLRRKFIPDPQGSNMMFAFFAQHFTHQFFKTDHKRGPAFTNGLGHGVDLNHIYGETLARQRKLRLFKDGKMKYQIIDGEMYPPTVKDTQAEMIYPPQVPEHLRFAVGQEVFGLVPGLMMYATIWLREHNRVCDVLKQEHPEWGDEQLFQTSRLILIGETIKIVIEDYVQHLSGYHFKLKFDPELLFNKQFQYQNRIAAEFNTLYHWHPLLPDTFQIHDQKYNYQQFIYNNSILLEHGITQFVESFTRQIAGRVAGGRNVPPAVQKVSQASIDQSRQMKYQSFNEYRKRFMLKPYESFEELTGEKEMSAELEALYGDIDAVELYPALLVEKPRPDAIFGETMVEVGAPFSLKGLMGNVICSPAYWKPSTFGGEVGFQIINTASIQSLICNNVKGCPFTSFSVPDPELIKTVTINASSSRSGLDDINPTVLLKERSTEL

[4] = target: T1, Prostaglandin G/H synthase 1 (Ovis aries); assay: Inhibition of ovine COX-1 assessed as production of PGE2 using arachidonic acid as a substrate preincubated for 60 mins at 100 uM followed by substrate addition and measured after 2 mins by ELISA analysis relative to control; conditions: time 62.0 min
[5] = target: T1, Prostaglandin G/H synthase 1 (Ovis aries); assay: Inhibition of ovine COX-1 assessed as production of PGE2 using arachidonic acid as a substrate preincubated for 60 mins at 10 uM followed by substrate addition and measured after 2 mins by ELISA analysis relative to control
[6] = target: T3, Prostaglandin G/H synthase 1 (Ovis aries, UniProt P05979); assay: Inhibition of ovine COX-1 assessed as production of PGE2 using arachidonic acid as a substrate preincubated for 60 mins followed by substrate addition and measured after 2 mins by ELISA analysis
T3 sequence (P05979 whole entry): T1 sequence (whole entry)

[7] = Selectivity index, ratio of IC50 for ovine COX-1 to IC50 for human COX-2
Mus musculus [8] = assay: Antiinflammatory activity in mouse xylene induced ear edema model assessed as inhibition of auricular edemas at 30 mg/kg, po once daily administered for 3 days prior to xylene stimulation and measured after 30 mins relative to control; format: functional; conditions: 72 h, time 3 day
Mus musculus [9] = assay: Analgesic activity in mouse model of acetic-acid induced writhing assessed as inhibition of writhing at 30 mg/kg, po once daily administered for 3 days prior to acetic acid injection measured after 20 mins relative to control; format: functional; conditions: 72 h, time 3 day
[10] = Solubility of the compound in water; format: physicochemical; conditions: buffer
Mus musculus [11] = assay: Antiinflammatory activity in mouse xylene induced ear edema model assessed as ear weight difference at 30 mg/kg, po once daily administered for 3 days prior to xylene stimulation and measured after 30 mins (reference value: 13.64 =/- 2.55 mg); format: functional; conditions: time 3 day
Mus musculus [12] = assay: Analgesic activity in mouse model of acetic-acid induced writhing assessed as number of writhes at 30 mg/kg, po once daily administered for 3 days prior to acetic acid injection measured after 20 mins (reference value: 29.13+/-9.36); format: functional; conditions: time 3 day

Row | SMILES | inhibition [1] | inhibition [2] | IC50 [3] | inhibition [4] | inhibition [5] | IC50 [6] | Ratio [7] | inhibition in vivo at 30 mg/kg (Mus musculus [8]) | inhibition in vivo at 30 mg/kg (Mus musculus [9]) | solubility [10] | Activity (Mus musculus [11]) | Activity (Mus musculus [12])
1 | Cc1cc(-c2ccccn2)nn1S(=O)(=O)Oc1ccc(Cl)cc1 | 56% | 51% | 5.8 nM | 83% | 80% | 0.09 µM | 16 | – | – | – | – | –
2 | Cc1cccc(-c2cc(C)n(S(=O)(=O)Oc3ccccc3)n2)c1 | – | – | – | 53% | 33% | 72.3 µM | – | 8.7% | 43.8% | Insoluble | 12.46 mg | 16.38
3 | Cc1ccc(-c2cc(C)n(S(=O)(=O)Oc3ccc(C)c(C)c3)n2)cc1 | 30% | 18% | – | 30% | 31% | > 100 µM | – | – | – | – | – | –
4 | Cc1cc(-c2ccc(Br)cc2)nn1S(=O)(=O)Oc1ccccc1 | 68% | 45% | 200 nM | 70% | 71% | 0.14 µM | 1 | – | – | – | – | –
5 | Cc1cc(-c2ccc(C(F)(F)F)cc2)nn1S(=O)(=O)Oc1ccccc1 | 32% | 33% | < 10 nM | 22% | 18% | – | – | 35.9% | 25.8% | Insoluble | 8.75 mg | 21.63
6 | CCc1ccc(-c2cc(C)n(S(=O)(=O)Oc3ccccc3)n2)cc1 | -1% | 11% | – | – | – | – | – | 21.1% | 48.1% | Insoluble | 10.76 mg | 15.13
7 | Cc1cc(-c2ccco2)nn1S(=O)(=O)Oc1ccccc1 | – | 47% | 31 nM | – | – | – | – | 12.5% | 42.5% | Insoluble | 11.93 mg | 16.75
8 | Cc1ccc(-c2cc(-c3ccccc3)n(S(=O)(=O)Oc3ccccc3)n2)cc1 | -3% | 10% | – | 6% | 1% | – | – | – | – | – | – | –
9 | Cc1cc(-c2ccccn2)nn1S(=O)(=O)Oc1ccccc1 | 39% | 25% | 100 nM | 29% | 29% | – | – | 11.3% | 15% | Insoluble | 12.1 mg | 24.75
10 | Cc1ccccc1-c1cc(C)n(S(=O)(=O)Oc2ccccc2)n1 | 63% | 65% | 11100 nM | 42% | 55% | – | – | – | – | – | – | –
11 | O=S(=O)(Oc1ccccc1)n1nc(-c2ccccc2)cc1-c1ccccc1 | 36% | 27% | < 10 nM | 68% | 44% | 9.38 µM | > 938 | 25.7% | 39.1% | Insoluble | 10.13 mg | 17.75
12 | Cc1cc(-c2ccc(F)cc2)nn1S(=O)(=O)Oc1ccccc1 | – | – | > 10000 nM | -2% | – | – | – | – | – | – | – | –
13 | Cc1ccc(-c2cc(C(C)C)n(S(=O)(=O)Oc3ccccc3)n2)cc1 | 39% | 20% | – | 21% | 47% | 18.1 µM | – | – | – | – | – | –
14 | CC(COCCOCCOCCOCCOCCOCCOCCOCCOCCOCCOCCOCCOCCOCCOCCOCCOCCOCCOCCOCCOCCOCCOCCOCCOCCOCCOCCOCCOCCOCCOCCOCCOCCOCCOCCOCCOCCOCCO)OCC(C)OCC(C)OCC(C)OCC(C)OCC(C)OCC(C)OCC(C)OCC(C)OCC(C)OCC(C)OCC(C)OCC(C)OCC(C)OCC(C)OCC(C)OCC(C)OCC(C)OCC(C)OCC(C)OCC(C)OCC(C)OCC(C)OCC(C)OCC(C)OCC(C)OCC(C)OCC(C)OCC(C)OCC(C)OCCOCCOCCOCCOCCOCCOCCOCCOCCOCCOCCOCCOCCOCCOCCOCCOCCOCCOCCOCCOCCOCCOCCOCCOCCOCCOCCOCCOCCOCCOCCOCCOCCOCCOCCOCCOCCOCCO (stereo not drawn) | – | – | – | – | – | – | – | 0% | 0% | Insoluble | 13.64 mg | 29.13
15 | Cc1cc(-c2ccccc2Cl)nn1S(=O)(=O)Oc1ccccc1 | 55% | 61% | – | 60% | 55% | – | – | – | – | – | – | –
16 | Cc1cc(-c2ccccc2)nn1S(=O)(=O)Oc1ccccc1C(F)(F)F | – | – | > 100000 nM | – | – | – | – | – | – | – | – | –
17 | Cc1cc(-c2ccc3ccccc3c2)nn1S(=O)(=O)Oc1ccccc1 | 7% | 4% | – | 27% | 13% | – | – | – | – | – | – | –
18 | Cc1cc(-c2cccs2)nn1S(=O)(=O)Oc1ccccc1 | 24% | 18% | – | 38% | 33% | > 100 µM | – | – | – | – | – | –
19 | Cc1cc(-c2cccc(Cl)c2)nn1S(=O)(=O)Oc1ccccc1 | 17% | 8% | 110 nM | 14% | 5% | – | – | 10% | 18.9% | Insoluble | 8.18 mg | 23.63
20 | COc1ccc(-c2cc(C)n(S(=O)(=O)Oc3ccccc3)n2)cc1 | 21% | 19% | – | 30% | 29% | > 100 µM | – | – | – | – | – | –
21 | Cc1cc(-c2ccc(Cl)cc2)nn1S(=O)(=O)Oc1ccccc1 | 18% | 16% | – | 43% | 20% | > 100 µM | – | – | – | – | – | –
22 | Cc1cc(-c2ccncc2)nn1S(=O)(=O)Oc1ccccc1 | 40% | 36% | – | 61% | 43% | – | – | – | – | – | – | –
23 | Cc1ccc(-c2cc(C)n(S(=O)(=O)Oc3ccccc3I)n2)cc1 | 9% | 4% | 92 nM | 19% | 14% | > 100 µM | > 1090 | – | – | – | – | –
24 | Cc1cc(-c2cccnc2)nn1S(=O)(=O)Oc1ccccc1 | 23% | 19% | – | 34% | 24% | – | – | – | – | – | – | –

Reference: ChEMBL document CHEMBL4808246 (Bioorg Med Chem, 2021)
